The values below come from publication PMC4861903, “Synthesis of a highly water-soluble acacetin prodrug for treating experimental atrial fibrillation in beagle dogs” (Scientific Reports, 2016).

The assay deals with T1, IKACh (acetylcholine-activated K+ current) (Rattus norvegicus, UniProt P48548+P63251).
T1 construct: endogenous in cells; host or cells: atrial myocytes dissociated from male Sprague-Dawley rats
T1 sequence (P63251 1-501): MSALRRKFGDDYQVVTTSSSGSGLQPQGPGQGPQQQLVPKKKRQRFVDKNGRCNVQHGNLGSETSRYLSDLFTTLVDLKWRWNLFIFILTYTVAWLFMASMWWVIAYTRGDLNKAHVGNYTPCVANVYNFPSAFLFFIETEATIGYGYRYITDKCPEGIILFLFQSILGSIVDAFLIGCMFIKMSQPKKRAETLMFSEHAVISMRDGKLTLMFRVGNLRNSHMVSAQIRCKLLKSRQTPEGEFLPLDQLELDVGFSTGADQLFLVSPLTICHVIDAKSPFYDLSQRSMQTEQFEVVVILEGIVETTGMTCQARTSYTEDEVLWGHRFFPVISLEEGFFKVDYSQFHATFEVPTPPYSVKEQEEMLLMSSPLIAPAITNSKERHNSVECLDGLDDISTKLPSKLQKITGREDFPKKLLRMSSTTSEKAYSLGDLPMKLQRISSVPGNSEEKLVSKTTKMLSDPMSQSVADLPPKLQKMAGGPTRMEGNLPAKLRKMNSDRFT
T1 sequence (P48548 1-419): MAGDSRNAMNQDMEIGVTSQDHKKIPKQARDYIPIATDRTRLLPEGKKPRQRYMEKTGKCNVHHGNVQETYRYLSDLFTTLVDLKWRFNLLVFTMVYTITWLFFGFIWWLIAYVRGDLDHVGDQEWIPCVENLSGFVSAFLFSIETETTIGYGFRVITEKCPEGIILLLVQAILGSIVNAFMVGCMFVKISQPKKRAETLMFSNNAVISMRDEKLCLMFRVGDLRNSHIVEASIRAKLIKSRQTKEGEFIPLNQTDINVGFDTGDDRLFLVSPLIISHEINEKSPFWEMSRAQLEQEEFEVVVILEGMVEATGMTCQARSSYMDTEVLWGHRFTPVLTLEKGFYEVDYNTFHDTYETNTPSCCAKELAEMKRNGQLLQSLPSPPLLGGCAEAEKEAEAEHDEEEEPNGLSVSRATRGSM
Kind of assay: Whole-cell IKACh elicited by 5 μM carbachol in rat atrial myocytes. Particulars: 30 μM, at −100 mV, n = 5. It counts as cell-based. The method, then: Whole-cell currents of hKv1.5 and hKv4.3 were recorded in established HEK 293 cell lines stably expressing hKv1.5 (KCN5A) and hKv4.3 (KCND3) and IKACh was determined in isolated rat atrial myocytes as described previously[12][31][32] and in Supplemental Materials. […]
Effects of acacetin prodrug on cardiac potassium currents […]
Cells on a coverslip were transferred to an open cell chamber (0.5 ml) mounted on the stage of an inverted microscope and superfused with Tyrode’s solution at 2 mL/min. The whole cell patch-clamp technique was used as described previously.1, 2 The whole-cell membrane currents were measured using an EPC-10 amplifier and Pulse software (Heka Elektronik, Lambrecht, Germany). Borosilicate glass electrodes (1.2-mm OD) were pulled with a Brown/Flaming puller (model P-97, Sutter Instrument, Nato, CA) and had resistances of 1.5~2.5 MΩ when filled with the pipette solution. A 3-M KCl agar bridge was used as the reference electrode. The tip potential was zeroed before the patch pipette contacted the cell. After a giga-Ohm seal was obtained, the cell membrane was ruptured by applying gentle pressure to establish a whole-cell configuration. […] The liquid junction potential (14.7 mV) calculated with the software Clampex was not corrected in the experiment and data […]
Whole-cell current of IKACh was determined in isolated rat atrial myocytes. […]

As to `COc1ccc(-c2cc(=O)c3c(O)cc(OP(=O)([O-])[O-])cc3o2)cc1.[Na+].[Na+]` [acacetin prodrug, phosphate sodium salt of acacetin], the “inhibition of IK.ACh” value is recorded as “no significant inhibition”.
